Results: patent US20210255193A1, “LYSINE REACTIVE PROBES AND USES THEREOF” (The Scripps Research Institute, priority 2017, published 2021)

Legend:
CARM1 = biological target: T1, CARM1 (Mus musculus, UniProt Q9WVG6); assay: direct labeling of recombinantly expressed proteins by gel-based ABPP (WT vs lysine mutant); assay type: binding; conditions: CARM1 K241, KR mutant; 10 μM probe, 1 h
T1 construct: FLAG; expressed in transfected cells; host or cells: HEK 293T
T1 sequence (Q9WVG6 1-608): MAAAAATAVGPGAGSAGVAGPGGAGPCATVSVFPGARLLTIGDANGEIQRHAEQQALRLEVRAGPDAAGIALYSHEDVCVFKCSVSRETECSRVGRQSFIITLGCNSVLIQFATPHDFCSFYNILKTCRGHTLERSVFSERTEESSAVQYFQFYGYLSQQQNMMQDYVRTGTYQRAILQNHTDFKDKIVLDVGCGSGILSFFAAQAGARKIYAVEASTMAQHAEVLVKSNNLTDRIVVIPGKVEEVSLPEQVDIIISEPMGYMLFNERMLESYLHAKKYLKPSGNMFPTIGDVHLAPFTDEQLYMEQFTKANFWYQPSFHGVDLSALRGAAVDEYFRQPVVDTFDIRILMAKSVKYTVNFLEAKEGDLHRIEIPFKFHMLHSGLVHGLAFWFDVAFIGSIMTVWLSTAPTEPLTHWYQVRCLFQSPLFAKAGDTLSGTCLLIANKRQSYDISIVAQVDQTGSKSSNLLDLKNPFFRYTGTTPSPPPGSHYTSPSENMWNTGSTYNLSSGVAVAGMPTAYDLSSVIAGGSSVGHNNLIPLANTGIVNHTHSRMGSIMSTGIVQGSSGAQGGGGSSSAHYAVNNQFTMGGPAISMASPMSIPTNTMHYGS

PFKL = biological target: T2, PFKL (Homo sapiens, UniProt P17858); assay: as above; assay type: binding; conditions: PFKL K676, KA mutant; 10 μM probe, 1 h
T2 construct: expressed in transfected cells; host or cells: HEK 293T
T2 sequence (P17858 1-780): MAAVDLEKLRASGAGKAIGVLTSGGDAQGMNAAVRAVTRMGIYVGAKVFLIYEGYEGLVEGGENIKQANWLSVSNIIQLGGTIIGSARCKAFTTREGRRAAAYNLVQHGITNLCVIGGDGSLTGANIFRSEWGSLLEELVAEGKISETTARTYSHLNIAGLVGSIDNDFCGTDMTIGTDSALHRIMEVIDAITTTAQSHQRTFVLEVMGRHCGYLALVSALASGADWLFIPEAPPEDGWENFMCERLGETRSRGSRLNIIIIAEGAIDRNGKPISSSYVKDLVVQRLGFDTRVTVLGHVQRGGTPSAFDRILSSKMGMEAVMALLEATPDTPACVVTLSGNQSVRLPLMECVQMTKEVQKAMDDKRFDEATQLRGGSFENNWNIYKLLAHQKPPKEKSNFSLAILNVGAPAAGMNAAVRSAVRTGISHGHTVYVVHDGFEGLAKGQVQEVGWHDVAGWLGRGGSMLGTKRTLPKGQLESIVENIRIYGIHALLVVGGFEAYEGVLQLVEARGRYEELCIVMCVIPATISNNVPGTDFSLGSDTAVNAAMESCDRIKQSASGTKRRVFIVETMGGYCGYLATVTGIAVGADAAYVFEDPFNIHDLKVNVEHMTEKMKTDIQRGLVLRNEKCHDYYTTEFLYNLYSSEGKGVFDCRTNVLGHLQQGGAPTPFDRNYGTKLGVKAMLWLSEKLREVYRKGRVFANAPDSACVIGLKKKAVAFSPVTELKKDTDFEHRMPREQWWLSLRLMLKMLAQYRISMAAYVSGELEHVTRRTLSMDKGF

SMILES | labeling of WT vs mutant protein by probe (CARM1) | labeling of WT vs mutant protein by probe (PFKL)
Cc1cc(C)n2c1C=C1C=CC(CCC(=O)Oc3c(F)c(F)c(S(=O)(=O)[O-])c(F)c3F)=[N+]1[B-]2(F)F.[Na+] [probe 18, reference compound] | PD (the WT labeled more than the mutant (>2x difference quantified)) | PD (the WT labeled more than the mutant (>2x difference quantified))
C#Cc1ccc(C(=O)Oc2ccccc2[N+](=O)[O-])cc1 [probe 10, 2-Nitrophenyl 4-ethynylbenzoate] | – | PD (the WT labeled more than the mutant (>2x difference quantified))
C#Cc1ccc(C(=O)Oc2c(F)c(F)cc(F)c2F)cc1 [probe 12, 2,3,5,6-Tetrafluorophenyl 4-ethynylbenzoate] | ND (the WT did not label more than the mutant (<2x difference quantified)) | PD (the WT labeled more than the mutant (>2x difference quantified))
C#CCCC(=O)Oc1c(F)c(F)c(S(=O)(=O)[O-])c(F)c1F.[Na+] [probe 1, reference compound] | HD (the WT labeled more than the mutant (>4x difference quantified)) | PD (the WT labeled more than the mutant (>2x difference quantified))
C#CCCC(=O)Oc1c(F)c(F)c(F)c(F)c1F [probe 6, Pentafluorophenyl 4-pentynoate] | ND (the WT did not label more than the mutant (<2x difference quantified)) | –
C#Cc1ccc(C(=O)Oc2c(F)c(F)c(F)c(F)c2F)cc1 [probe 13, Pentafluorophenyl 4-ethynylbenzoate] | ND (the WT did not label more than the mutant (<2x difference quantified)) | PD (the WT labeled more than the mutant (>2x difference quantified))
